Results as given in ChEMBL document CHEMBL2321714, “Novel Aza-resveratrol analogs: synthesis, characterization and anticancer activity against breast cancer cell lines” (Bioorg Med Chem Lett, 2013).
Activity calls are given as the source filed them. The rule behind the calls is not given here.

How the values were obtained:
T47D [1] = assay: Cytotoxicity against human T47D cells at 50 uM by MTT assay; format: functional
MDA-MB-231 [2] = assay: Cytotoxicity against human MDA-MB-231 cells at 50 uM by MTT assay; format: functional
MDA-MB-231 [3] = assay: Cytotoxicity against human MDA-MB-231 cells by MTT assay; format: functional, cell-based
T47D [4] = assay: Cytotoxicity against human T47D cells by MTT assay; format: functional, cell-based
MCF-10A = assay: Cytotoxicity against human MCF10A cells at 50 uM by MTT assay; format: cell-based
MDA-MB-231 [5] = assay: Induction of autophagy in human MDA-MB-231 cells assessed as increase in Beclin-1 expression at 50 uM after 12 hrs by Western blot analysis; format: functional, cell-based
T47D [6] = assay: Induction of autophagy in human T47D cells assessed as increase in Beclin-1 expression at 50 uM after 12 hrs by Western blot analysis; format: functional, cell-based

| Compound | Activity (T47D [1]) | Activity (MDA-MB-231 [2]) | IC50 (MDA-MB-231 [3]) [µM] | IC50 (T47D [4]) [µM] | Activity (MCF-10A) | Activity (MDA-MB-231 [5]) | Activity (T47D [6]) |
| --- | --- | --- | --- | --- | --- | --- | --- |
| Oc1ccc(/C=C/c2cc(O)cc(O)c2)cc1 [RESVERATROL] | 40% | 40% | 66 | 76 | – | – | – |
| COc1ccc(/N=C/c2ccc(O)c(O)c2)cc1 | Active | Active | – | – | Non-toxic | – | – |
| Oc1ccc(/N=C/c2ccc(O)c(O)c2)cc1 | 40% | 65% | 29 | 44 | Non-toxic | Active | Active |
| Oc1ccc(/C=N/c2ccc(F)cc2)cc1O | Active | Active | – | – | Non-toxic | – | – |
| Oc1ccc(/C=N/c2ccc3[nH]ccc3c2)cc1O | 40% | inactive | – | – | Non-toxic | – | – |
| Cc1ccc(/N=C/c2ccc(O)c(O)c2)cc1 | 40% | 65% | 21 | 32 | Non-toxic | Active | Active |
| Oc1ccc(/C=N/c2ccc(Cl)cc2)cc1O | Active | Active | – | – | Non-toxic | – | – |
